Results published in patent publication US11331299B2, “Medicinal use of serrulatane diterpenes” (The University of Sydney, priority 2016, dated 2022).

System: 43 cancer cell lines and one normal cell line
Assay: In vitro cell viability assay (intracellular ATP, 72 hour)
Format: cell-based
Details: 10 μM

For `CC(C)=CCC[C@H](C)[C@@H]1CC[C@@H](C)c2c1cc(C)c(O)c2O` [Compound 4, 7,8-dihydroxyserrulat-14-ene], the “reduction in cell viability” value (Ramos, H33HJ-JA1, HL-60 (TB), MOLT-4, MV-411, SK-N-MC) was −82 to −94%, the “% Cell growth” value (4T1 (Breast Cancer)) was 26% and the “% Cell growth” value (A375 (Skin)) was 65%. The “% Cell growth” value (A549/ATCC (Non-Small Cell Lung Cancer)) was 93%, the “% Cell growth” value (A-431 (Skin)) was 107% and the “% Cell growth” value (A-498 (Kidney Cancer)) was 89%. The “% Cell growth” value (ACHN (Kidney Cancer)) was 105%, the “% Cell growth” value (B16-F0 (Melanoma)) was 56% and the “% Cell growth” value (BT474 (Breast Cancer)) was 64%. For the same compound, the “% Cell growth” value (CT26.WT (Colon Cancer)) was 33%, the “% Cell growth” value (DLD-1 (Colon Cancer)) was 68% and the “% Cell growth” value (H33HJ-JA1 (Lymphoma)) was −87%. For the same compound, the “% Cell growth” value (HC-4 (Liver Cancer)) was 91%, the “% Cell growth” value (HCT-15 (Colon Cancer)) was 69% and the “% Cell growth” value (HCT-116 (Colon Cancer)) was 64%. For the same compound, the “% Cell growth” value (HT-29 (Colon Cancer)) was 91%, the “% Cell growth” value (Hep3B (Liver Cancer)) was 93% and the “% Cell growth” value (HepG2 (Liver Cancer)) was 90%. For the same compound, the “% Cell growth” value (K-562 (Leukemia)) was 60%, the “% Cell growth” value (KATO III (Stomach)) was 83% and the “% Cell growth” value (LL/2 (Non-Small Cell Lung Cancer)) was 98%. For the same compound, the “% Cell growth” value (LNCaP (Prostrate Cancer)) was 56%, the “% Cell growth” value (MCF7 (Breast Cancer)) was 77% and the “% Cell growth” value (MCF-7 AdrR (Breast Cancer)) was 77%. The “% Cell growth” value (MDA-MB-231 (Breast Cancer)) was 84%, the “% Cell growth” value (MDA-MB-468 (Breast Cancer)) was 52% and the “% Cell growth” value (MES-SA (Uterus)) was 68%. The “% Cell growth” value (MIA PaCa-2 (Pancreas)) was 92%, the “% Cell growth” value (MOLT-4 (Leukemia)) was −93% and the “% Cell growth” value (MV-411 (Leukemia)) was −94%. For the same compound, the “% Cell growth” value (NCI-H460 (Non-Small Cell Lung Cancer)) was 93%, the “% Cell growth” value (OVCAR-3 (Ovarian Cancer)) was 60% and the “% Cell growth” value (PANC-1 (Pancreas)) was 82%. For the same compound, the “% Cell growth” value (PC-6 (Non-Small Cell Lung Cancer)) was 4%, the “% Cell growth” value (Ramos (Lymphoma)) was −82% and the “% Cell growth” value (SK-MEL-5 (Melanoma)) was 88%. The “% Cell growth” value (SK-N-MC (Brain)) was −92%, the “% Cell growth” value (SK-OV-3 (Ovarian Cancer)) was 74% and the “% Cell growth” value (SW-620 (Colon Cancer)) was 74%. The “% Cell growth” value (T-47D (Breast Cancer)) was 47%, the “% Cell growth” value (U937 (Lymphoma)) was 20% and the “% Cell growth” value (U-87 MG (Brain)) was 81%.
